Experimental data published in article PMC11345828 (Journal of Medicinal Chemistry, 2024).
“And” between values parts separate entries of the source, which are not always exact repeats. Equal entries are not always repeated. Where two headings read alike, the source gives them in different places. Marks after values point to notes of the source that are not given here. Each block holds one compound with its values, some of them ahead of it.

Experiments:
[1] = set-up: method as in PMID 37880389; details: including increases in patient troponin I levels; cited from earlier work
[2] = set-up: method as in PMID 30254093; details: species not given; cited from earlier work
[3] = system: K562 cell line; assay: cells; details: Homo sapiens, K562, read-out: K562 GI50
Procedure: (§1) NCI-H1048 were cultured in custom medium prepared by PanBioTech containing DMEM/F12 + 5% fetal calf serum, 0.005 mg/mL insulin, 0.01 mg/mL transferrin, 30 nM sodium selenite, 10 nM hydrocortisone, 10 nM β-estradiol and […] 2 mM L-glutamine.
(§2) Suspension cells were plated immediately before compound addition. Adherent cell lines were incubated overnight at 37 °C in a tissue culture incubator prior to compound addition. Compounds were added in triplicates using an HP D300e Digital Dispenser (Hewlett-Packard) or manually at the concentrations indicated and total volumes were normalized using dimethyl sulfoxide (DMSO) backfill, with final DMSO concentration of 0.5%. Control wells were treated with DMSO only.

[4] = system: NCI-H929 cell line; assay: cells; details: Homo sapiens
Procedure: as §1, §2

[5] = biological target: Mcl-1 (Homo sapiens, UniProt Q07820); assay type: binding; details: read-out: TR-FRET Ki
Text: Mixtures containing vehicle without compound served as a negative control, while mixtures containing no protein served as a positive control.

[6] = Mouse IV PK; details: for CL / AUC/Dose: dosed at 25 mg/kg; for AUC/Dose: dose normalized; for clearance: mouse, plasma, iv
Procedure: (§3) For PK analysis, mice and dogs were administered intravenously with compound formulated either in 10% ethanol and 10% Cremophor EL for mice or in 50% ethanol and 50% PEG500 for dogs. Plasma samples were obtained at predefined time points and compound concentrations in plasma were measured by quantitative HPLC-MS/MS using an internal standard. Calibration and quality control samples were prepared using blank plasma from untreated animals. Samples were precipitated with acetonitrile and injected into a HPLC system (Agilent 1200). […] The HPLC was interfaced by ESI operated in positive ionization mode to a triple quadrupole mass spectrometer (6500+ Triple Quad System, SCIEX) operated in multiple reaction monitoring mode. Chromatograms were analyzed with Analyst (SCIEX) and pharmacokinetic parameters were calculated by noncompartmental analysis using proprietary software.

[7] = Dog IV PK; details: dosed at 0.25 mg/kg
Procedure: as §3

[8] = NCI-H929, read-out: NCI-H929 GI50

Chain of Mcl-1 (Q07820 whole entry): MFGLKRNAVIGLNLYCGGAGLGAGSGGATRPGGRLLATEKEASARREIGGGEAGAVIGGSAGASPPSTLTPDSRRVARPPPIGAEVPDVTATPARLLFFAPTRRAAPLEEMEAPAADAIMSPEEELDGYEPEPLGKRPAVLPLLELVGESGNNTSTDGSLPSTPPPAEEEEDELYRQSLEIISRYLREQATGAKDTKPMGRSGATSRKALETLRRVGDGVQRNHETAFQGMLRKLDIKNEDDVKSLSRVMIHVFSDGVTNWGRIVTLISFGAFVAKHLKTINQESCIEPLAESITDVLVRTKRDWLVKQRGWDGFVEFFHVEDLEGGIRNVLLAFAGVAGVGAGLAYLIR

SMILES: COc1ccccc1-c1nccc(COc2ccccc2C[C@@H](Oc2ncnc3sc(-c4ccc(F)cc4)c(-c4ccc(OCCN5CCN(C)CC5)c(Cl)c4C)c23)C(=O)O)n1 [Compound 1]
toxicity reported in the clinic [1]: dose limiting toxicities

SMILES: CO[C@H]1/C=C/C[C@H](C)[C@@H](C)S(=O)(=O)NC(=O)c2ccc3c(c2)N(C[C@@H]2CC[C@H]21)C[C@@]1(CCCc2cc(Cl)ccc21)CO3 [Compound 3]
T [2]: 14 h
Vss [2]: 0.6 L/kg

SMILES: CO[C@]1(CN2CCN3CCCC[C@@H]3C2)/C=C/C[C@H](C)[C@@H](C)S(=O)(=O)NC(=O)c2ccc3c(c2)N(C[C@@H]2CC[C@H]21)C[C@@]1(CCCc2cc(Cl)ccc21)CO3 [Compound 4]
toxicity reported in the clinic [1]: dose limiting toxicities

SMILES: Cc1c(Cl)c2c(Cl)c(C)c1-c1c(-c3ccc(F)cc3)sc3ncnc(c13)O[C@@H](C(=O)O)Cc1cc(ccc1OCc1ccnc(-c3ccc(OC[C@H]4COCCO4)cc3)n1)OC[C@@H](CN1CCN(C)CC1)O2 [Compound 5]
toxicity reported in the clinic [1]: dose limiting toxicities

SMILES: Cc1cc(N2C[C@@H](C)n3c(c(CCCOc4cc(C)c(Cl)c(C)c4)c4ccc(Cl)c(-c5c(C)nn(C)c5C)c43)C2=O)c2c(c1)cc(C(=O)O)n2C [Compound 11, (R)-7-(7-Chloro-10-(3-(4-chloro-3,5-dimethylphenoxy)propyl)-4-methyl-1-oxo-6-(1,3,5-trimethyl-1H-pyrazol-4-yl)-3,4-dihydropyrazino[1,2-a]indol-2(1H)-yl)-1,5-dimethyl-1H-indole-2-carboxylic Acid]
GI50 [3]: > 12500 nM
GI50 [4, 8]: 140 ± 110 nM
Ki [5]: 0.205 ± 0.018 nM

SMILES: COc1cc(N2C[C@@H](C)n3c(c(CCCOc4cc(C)c(Cl)c(C)c4)c4ccc(Cl)c(-c5c(C)nn(C)c5C)c43)C2=O)c2c(c1)cc(C(=O)O)n2C [Compound 12, (R)-7-(7-Chloro-10-(3-(4-chloro-3,5-dimethylphenoxy)propyl)-4-methyl-1-oxo-6-(1,3,5-trimethyl-1H-pyrazol-4-yl)-3,4-dihydropyrazino[1,2-a]indol-2(1H)-yl)-5-methoxy-1-methyl-1H-indole-2-carboxylic Acid]
GI50 [3]: > 12500 nM
GI50 [4, 8]: 211 ± 22 nM
Ki [5]: 0.185 ± 0.027 nM

SMILES: COc1ccc(N2C[C@@H](C)n3c(c(CCCOc4cc(C)c(Cl)c(C)c4)c4ccc(Cl)c(-c5c(C)nn(C)c5C)c43)C2=O)c2c1cc(C(=O)O)n2C [Compound 13, (R)-7-(7-Chloro-10-(3-(4-chloro-3,5-dimethylphenoxy)propyl)-4-methyl-1-oxo-6-(1,3,5-trimethyl-1H-pyrazol-4-yl)-3,4-dihydropyrazino[1,2-a]indol-2(1H)-yl)-4-methoxy-1-methyl-1H-indole-2-carboxylic Acid]
GI50 [3]: > 7100 nM
GI50 [4, 8]: 110 ± 38 nM
Ki [5]: 0.091 ± 0.003 nM

SMILES: COCc1cc(N2C[C@@H](C)n3c(c(CCCOc4cc(C)c(Cl)c(C)c4)c4ccc(Cl)c(-c5c(C)nn(C)c5C)c43)C2=O)c2c(c1)cc(C(=O)O)n2C [Compound 14, (R)-7-(7-Chloro-10-(3-(4-chloro-3,5-dimethylphenoxy)propyl)-4-methyl-1-oxo-6-(1,3,5-trimethyl-1H-pyrazol-4-yl)-3,4-dihydropyrazino[1,2-a]indol-2(1H)-yl)-5-(methoxymethyl)-1-methyl-1H-indole-2-carboxylic Acid]
GI50 [3]: > 12500 nM
GI50 ([4]; NCI-H929, read-out: H929 GI50): 112 nM
GI50 [4, 8]: 122 ± 16 nM
Ki [5]: 0.2 ± 0.065 nM

GI50 [3]: 6800 ± 3300 nM
GI50 [4, 8]: 33 ± 14 nM
CL ([6]; mouse IV): 45 mL/min/kg
AUC/Dose ([6]; mouse IV, 25 mg/kg): 385 nM*h/mpk and 385^c nM*h/mpk
improvement in the mouse IV clearance from (M)-18 ([6]; mouse IV, relative to (M)-18): 2 fold
clearance ([6]; 25 mg/kg): 45 mL/min/kg
SMILES: COc1cc(N2C[C@@H](C)n3c(c(CCCOc4cc(C)c(Cl)c(C)c4)c4ccc(Cl)c(-c5c(C)nc(C)nc5C)c43)C2=O)c2c(cc(C(=O)O)n2C)c1OC [Compound 20, (R)-7-(7-Chloro-10-(3-(4-chloro-3,5-dimethylphenoxy)propyl)-4-methyl-1-oxo-6-(2,4,6-trimethylpyrimidin-5-yl)-3,4-dihydropyrazino[1,2-a]indol-2(1H)-yl)-4,5-dimethoxy-1-methyl-1H-indole-2-carboxylic Acid]

GI50 [3]: > 12000 nM
GI50 [4, 8]: 30 ± 13 nM
CL ([6]; mouse IV): 58 mL/min/kg
AUC/Dose ([6]; mouse IV): 290^c nM*h/mpk
clearance ([6]; 25 mg/kg): 58 mL/min/kg
SMILES: COCCOc1cc(N2C[C@@H](C)n3c(c(CCCOc4cc(C)c(Cl)c(C)c4)c4ccc(Cl)c(-c5c(C)ncnc5C)c43)C2=O)c2c(cc(C(=O)O)n2C)c1OC [Compound 21, (R)-7-(7-Chloro-10-(3-(4-chloro-3,5-dimethylphenoxy)propyl)-6-(4,6-dimethylpyrimidin-5-yl)-4-methyl-1-oxo-3,4-dihydropyrazino[1,2-a]indol-2(1H)-yl)-4-methoxy-5-(2-methoxyethoxy)-1-methyl-1H-indole-2-carboxylic Acid]

GI50 [3]: > 12000 nM
GI50 [4, 8]: 22 ± 10 nM
AUC/Dose [7]: 1324 nM*h/mpk
CL [7]: 16 mL/min/kg
CL (% hep blood flow) [7]: 50 % hep blood flow
CL ([6]; mouse IV): 51 mL/min/kg
AUC/Dose ([6]; mouse IV): 334^c nM*h/mpk
clearance ([6]; 25 mg/kg): 51 mL/min/kg
SMILES: COCCOc1cc(N2C[C@@H](C)n3c(c(CCCOc4cc(C)c(Cl)c(C)c4)c4ccc(Cl)c(-c5c(C)nc(C)nc5C)c43)C2=O)c2c(cc(C(=O)O)n2C)c1OC [Compound 25, (R)-7-(7-Chloro-10-(3-(4-chloro-3,5-dimethylphenoxy)propyl)-4-methyl-1-oxo-6-(2,4,6-trimethylpyrimidin-5-yl)-3,4-dihydropyrazino[1,2-a]indol-2(1H)-yl)-4-methoxy-5-(2-methoxyethoxy)-1-methyl-1H-indole-2-carboxylic Acid]
